Reference: publication PMC5562305, “Impact of novel palmitoylated prolactin-releasing peptide analogs on metabolic changes in mice with diet-induced obesity” (PLoS ONE, 2017)
Starred links: 1 amine or outer side, 2 acyl side, 3 side chain; linkers in the order of their positions; H or OH if unused. Residues, ends and D or L forms follow the SMILES beside them. Groups on a side chain read outwards from the residue. *: point of attachment. TTDA(Palmitoyl) = CCCCCCCCCCCCCCCC(=O)NCCCOCCOCCOCCCN*; Suc = O=C(CCC(=O)[*:2])[*:1]

System: urinary metabolites
Assay: NMR-based metabolomics of urine of DIO mice
Assay type: in vivo, C57BL/6 mice
Design: key to DMA, Mean / DMG, Mean / MA, Mean / TMA, Mean / acetate, Mean / allantoin, Mean / carnitine, Mean / choline, Mean / cis-aconitate, Mean / creatine+creatinine, Mean / creatine, Mean / creatinine, Mean / ethanolamine, Mean / formate, Mean / galactose, Mean / glucose, Mean / glycine, Mean / lactate, Mean / succinate, Mean / vinylacetylglycine, Mean: TSA-normalized intensity of the metabolite's representative NMR signal
Description: Urine samples for NMR-based metabolomics were collected prior to the start of the interventions and at the end of the experiment. For overnight urine collection (from 5 pm to 8 am), the mice were housed in individual metabolic cages (Tecniplast, Buguggiate, Italy) without access to food. Samples were collected with the addition of NaN3 and stored at -80°C until NMR analysis.
The urine samples were thawed at room temperature and centrifuged at 13 684 x g for 5 min prior to the NMR experiments. A 200-μl aliquot of supernatant was diluted with 340 μl of H2O mixed with 60 μl of phosphate buffer (1.5 M KH2PO4 in D2O containing 2 mM NaN3 and 0.1% trimethylsilyl propionic acid (TSP), pH 7.4) and transferred to a 5-mm NMR tube. The NMR data were acquired with a 600 MHz Bruker Avance III spectrometer (Bruker BioSpin, Rheinstetten, Germany) equipped with a 5-mm TCI cryogenic probe head. All of the experiments were performed at 300 K. Automatic tuning, matching, shimming and adjusting of the 90° pulse length were performed for each sample.
As mouse urine naturally contains urinary proteins, the NMR spectra were acquired using a Carr-Purcell-Meiboom-Gill (CPMG) pulse sequence with water presaturation (Bruker pulse sequence cpmgpr1d) to eliminate the strong protein background. […] For better metabolite identification, a short J-resolved experiment with presaturation (NS = 2, SW = 16 ppm, TD = 8k, number of increments = 40, SW = 78.125 Hz in the indirect dimension, and relaxation delay = 2 s) was executed for all samples. Additional two-dimensional ^1H-^1H correlation spectroscopy (COSY) and ^1H-^13C heteronuclear multiple-quantum correlation (HMQC) experiments (Bruker pulse sequences cosygpprqf and hmqcphpr) were performed for selected samples.
The acquired data were processed using Topspin 3.2 software (Bruker BioSpin, Rheinstetten, Germany). Line broadening of 0.3 Hz was applied on free induction decays (FIDs) prior to Fourier transformation. The spectra were automatically phased, baseline corrected and referenced to the signal of TSP (0.00 ppm).
The assignment of individual metabolites was achieved by comparing the proton spectra with the spectra of pure metabolites using Chenomx NMR Suite 7.6 (Chenomx Inc., Edmonton, AB, Canada), the HMDB database and previously published metabolomic data. The identification of metabolites was supported through J-resolved and COSY experiments and, if possible, confirmed using carbon chemical shifts extracted from the HMQC spectra.
For quantitation of individual metabolites, the CPMG spectra were uniformly binned in the range of 0.10–10.00 ppm to 0.01-ppm intervals using AMIX software (Bruker BioSpin, Rheinstetten, Germany). This procedure reduced the dimensionality of the data, eliminated chemical shift variations and thus simplified the reproducible automatic quantification. Regions corresponding to water (4.60–4.90 ppm) and urea (5.60–6.00 ppm) were removed prior to analysis. As the dilutions of the original urine samples differed (due to the differences in water intake during urine collection), all of the spectra were normalized to the total spectral area (TSA). For each identified metabolite, one representative signal was chosen and then quantified as the sum of appropriate adjacent 0.01-ppm bins to cover the whole signal width. The metabolite concentration was expressed as the TSA-normalized intensity of the respective signal. For selection of an appropriate statistical method (parametric or non-parametric) the Lilliefors test of normality was performed. […] Metabolite alterations with a P < 0.05 were considered statistically significant. Statistical analysis was performed using Matlab software (“MATLAB version 8.6 (R2015b). Natick, Massachusetts: The MathWorks Inc., 2015.,” n.d.). […]

[1] = urine NMR signal, DIO mice, group mean
[2] = urine of DIO mice, NMR metabolomics, difference of analog mean vs saline mean

Question: For `CCCCCCCCCCCCCCCC(=O)NCCCOCCOCCOCCCNC(=O)CCC(=O)NCCCC[C@H](NC(=O)[C@@H](NC(=O)[C@H](CCC(=O)O)NC(=O)[C@H](CCSC)NC(=O)[C@H](CO)NC(=O)[C@H](Cc1c[nH]cn1)NC(=O)[C@H](CCCNC(=N)N)NC(=O)[C@H](Cc1c[nH]cn1)NC(=O)[C@@H](NC(=O)[C@H](CCCNC(=N)N)NC(=O)[C@H](CO)NC(=O)CCC(=O)NCCCOCCOCCOCCCNC(=O)CCCCCCCCCCCCCCC)[C@@H](C)O)[C@@H](C)CC)C(=O)N[C@H](C(=O)N1CCC[C@H]1C(=O)N[C@@H](CC(=O)O)C(=O)N[C@H](C(=O)N[C@@H](CC(N)=O)C(=O)N1CCC[C@H]1C(=O)N[C@@H](C)C(=O)N[C@@H](Cc1c[nH]c2ccccc12)C(=O)N[C@@H](Cc1ccc(O)cc1)C(=O)N[C@@H](C)C(=O)N[C@@H](CO)C(=O)N[C@@H](CCCNC(=N)N)C(=O)NCC(=O)N[C@H](C(=O)N[C@@H](CCCNC(=N)N)C(=O)N1CCC[C@H]1C(=O)N[C@H](C(=O)NCC(=O)N[C@@H](CCCNC(=N)N)C(=O)N[C@@H](Cc1ccccc1)C(N)=O)C(C)C)[C@@H](C)CC)[C@@H](C)CC)[C@@H](C)O` [analog 3] ({TTDA(Palmitoyl)-Suc}-SRTHRHSMEIK([Suc-TTDA(Palmitoyl)])TPDINPAWYASRGIRPVGRF-NH2), which “2-OG (2.45 ppm), Mean” value [1] is on record?
Answer: 11.878

Question: What about the “2-OG (3.01 ppm), Mean” value [1] of the same compound?
Answer: 10.469

Question: What about the “2-PY (8.33 ppm), Mean” value [1] of the same compound?
Answer: 1.098

Question: And the “3-indoxylsulfate (7.51 ppm), Mean” value [1]?
Answer: 1.344

Question: What about the “3-indoxylsulfate (7.71 ppm), Mean” value [1] of the same compound?
Answer: 0.810

Question: And the “4-PY (7.97 ppm), Mean” value [1]?
Answer: 2.017

Question: What about the “4-PY (8.55 ppm), Mean” value [1] of the same compound?
Answer: 0.633

Question: What about the “DMA, Mean” value [1] of the same compound?
Answer: 5.618

Question: And the “DMG, Mean” value [1]?
Answer: 1.853

Question: And the “MA, Mean” value [1]?
Answer: 3.016

Question: What about the “MNA (8.90 ppm), Mean” value [1] of the same compound?
Answer: 0.487

Question: And the “MNA (8.97 ppm), Mean” value [1]?
Answer: 0.470

Question: And the “MNA (9.265 ppm), Mean” value [1]?
Answer: 0.490

Question: What about the “MNA-Nox (7.75 ppm), Mean” value [1] of the same compound?
Answer: 0.972

Question: What about the “MNA-Nox (8.13 ppm), Mean” value [1] of the same compound?
Answer: 0.792

Question: And the “MNA-Nox (8.49 ppm), Mean” value [1]?
Answer: 0.511

Question: What about the “MNA-Nox (8.75 ppm), Mean” value [1] of the same compound?
Answer: 0.485

Question: What about the “N-carbamoylalanine (2.38 ppm), Mean” value [1] of the same compound?
Answer: 11.854

Question: And the “N-carbamoylalanine (3.31 ppm), Mean” value [1]?
Answer: 9.499

Question: And the “N-isovalerylglycine + oxovalerate (0.92 ppm), Mean” value [1]?
Answer: 16.056

Question: And the “TMA, Mean” value [1]?
Answer: 11.780

Question: What about the “acetate, Mean” value [1] of the same compound?
Answer: 3.429

Question: What about the “allantoin, Mean” value [1] of the same compound?
Answer: 22.447

Question: What about the “carnitine, Mean” value [1] of the same compound?
Answer: 6.067

Question: And the “choline, Mean” value [1]?
Answer: 1.970

Question: And the “cis-aconitate, Mean” value [1]?
Answer: 8.481

Question: What about the “citrate (2.55 ppm), Mean” value [1] of the same compound?
Answer: 29.434

Question: And the “citrate (2.69 ppm), Mean” value [1]?
Answer: 26.220

Question: And the “creatine+creatinine, Mean” value [1]?
Answer: 24.904

Question: What about the “creatine, Mean” value [1] of the same compound?
Answer: 7.343

Question: And the “creatinine, Mean” value [1]?
Answer: 11.686

Question: What about the “ethanolamine, Mean” value [1] of the same compound?
Answer: 8.370

Question: What about the “formate, Mean” value [1] of the same compound?
Answer: 0.199

Question: And the “fumarate, Mean” value [1]?
Answer: 0.151

Question: And the “galactose, Mean” value [1]?
Answer: 0.578

Question: What about the “glucose, Mean” value [1] of the same compound?
Answer: 3.207

Question: And the “glycine, Mean” value [1]?
Answer: 5.874

Question: And the “hexanoylglycine + acids (0.88 ppm), Mean” value [1]?
Answer: 15.361

Question: And the “hippurate (7.55 ppm), Mean” value [1]?
Answer: 3.987

Question: What about the “hippurate (7.64 ppm), Mean” value [1] of the same compound?
Answer: 2.057

Question: And the “hippurate (7.84 ppm), Mean” value [1]?
Answer: 4.311

Question: And the “lactate, Mean” value [1]?
Answer: 6.853

Question: What about the “multiplet acids (1.6 ppm), Mean” value [1] of the same compound?
Answer: 12.521

Question: And the “putrescin, Mean” value [1]?
Answer: 8.726

Question: What about the “succinate, Mean” value [1] of the same compound?
Answer: 9.267

Question: What about the “taurine (3.27 ppm), Mean” value [1] of the same compound?
Answer: 24.146

Question: What about the “taurine (3.43 ppm), Mean” value [1] of the same compound?
Answer: 20.508

Question: What about the “trigonelline (8.84 ppm), Mean” value [1] of the same compound?
Answer: 0.263

Question: And the “trigonelline (9.13 ppm), Mean” value [1]?
Answer: 0.106

Question: And the “vinylacetylglycine, Mean” value [1]?
Answer: 3.527

Question: What about the “2-OG (2.45 ppm), Saline/analog %” value [2] of the same compound?
Answer: 0.010%

Question: What about the “2-OG (3.01 ppm), Saline/analog %” value [2] of the same compound?
Answer: 0.022%

Question: What about the “2-PY (8.33 ppm), Saline/analog %” value [2] of the same compound?
Answer: -0.056%

Question: What about the “3-indoxylsulfate (7.51 ppm), Saline/analog %” value [2] of the same compound?
Answer: 0.032%

Question: What about the “3-indoxylsulfate (7.71 ppm), Saline/analog %” value [2] of the same compound?
Answer: 0.052%

Question: And the “4-PY (7.97 ppm), Saline/analog %” value [2]?
Answer: 0.115%

Question: What about the “4-PY (8.55 ppm), Saline/analog %” value [2] of the same compound?
Answer: 0.091%

Question: What about the “DMA, Saline/analog %” value [2] of the same compound?
Answer: 0.119%

Question: And the “N-carbamoylalanine (2.38 ppm), Saline/analog %” value [2]?
Answer: 0.101%

Question: And the “N-carbamoylalanine (3.31 ppm), Saline/analog %” value [2]?
Answer: 0.00116%

Question: What about the “N-isovalerylglycine + oxovalerate (0.92 ppm), Saline/analog %” value [2] of the same compound?
Answer: 0.108%

Question: What about the “TMA, Saline/analog %” value [2] of the same compound?
Answer: -0.031%

Question: And the “acetate, Saline/analog %” value [2]?
Answer: -0.087%

Question: What about the “allantoin, Saline/analog %” value [2] of the same compound?
Answer: 0.112%

Question: What about the “carnitine, Saline/analog %” value [2] of the same compound?
Answer: 0.019%

Question: What about the “choline, Saline/analog %” value [2] of the same compound?
Answer: -0.000203%

Question: What about the “cis-aconitate, Saline/analog %” value [2] of the same compound?
Answer: -0.045%

Question: What about the “citrate (2.55 ppm), Saline/analog %” value [2] of the same compound?
Answer: -0.096%

Question: And the “citrate (2.69 ppm), Saline/analog %” value [2]?
Answer: -0.120%

Question: And the “creatine+creatinine, Saline/analog %” value [2]?
Answer: 0.092%
